Results as given in patent US6762160B2, “Composition for removing biofilms comprising a detergent and a salt forming acid” (Universite de Montreal, priority 1998, dated 2004).
“Also recorded” adds a separate entry of the source.

Key:
[1] = system: dental unit waterlines bacteria; test: Antibacterial activity: growth in R2Am medium after disinfection of tubings;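 note: disinfected tubing pieces kept 7 days at room temperature in R2Am medium, then scored for presence or absence of bacterial growth by absorbance at 590 nm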
Protocol: To test the antibacterial activity, we used the same setup as above. After the 1 or 18 hour incubation, tubings were rinsed with sterile water. Pieces of tubings were dropped in sterile test tubes containing 4 ml of R2Am medium. Test tubes were capped and incubated for 7 days at room temperature. […] Data were recorded as presence or absence of growth with a spectrophotometer at λ=590 nm.

[2] = system: mature biofilms on lumen of dental unit waterlines tubings; test: Biofilm removal from dental unit waterline tubing pieces, binocular microscope 40x, arbitrary scale; type: cell-based, dental unit waterlines bacteria; conditions: for detergent capable of dislodging biofilms: different types of detergents tried; for RESULTS AFTER DISINFECTION 1 hour (biofilm scale): key: −: no biofilm; ++++: + ++ + : no significant removal of film; for RESULTS AFTER DISINFECTION 18 hours (biofilm scale): key: −: no biofilm; ++++: + ++ + : no significant removal of film
Protocol: Two-cm long pieces of dental unit waterlines tubings were used. These tubings were taken from functional dental units installed at the faculty of dentistry of the University of Montreal. […] The pieces were sectioned longitudinally with a sterile scalpel blade to expose the biofilm. Another series of tubings was left untouched. Sections of tubings were placed in sterile 5 ml disposable test tubes containing solutions to be tested.
After 1 or 18 hours without agitation at room temperature, tubings were rinsed three times with sterile water.

Mycobacterium sp. = type: cell-based
[3] = selected acid 1% with H2O2 5%, EDTA 1%, SDS 1%, pH 5,0, tubing incubated 7 days in R2Am, 590 nm
[4] = selected acid 1% with H2O2 5%, EDTA 1%, SDS 1%, pH 5,0, 18 hours contact, room temperature, no agitation
[5] = acid 1% in H2O2 5%/EDTA 1%/SDS 1% solution, pH 5.0, 1 hour or 18 hours
[6] = selected acid 1% with H2O2 5%, EDTA 1%, SDS 1%, pH 5,0, 1 hour contact, room temperature, no agitation

Compound | RESULTS AFTER DISINFECTION Growth [1, 3] | acceptably performing acids: decontamination within the specified times [2, 5] | also measured
CC(N)C(=O)O (racemic) [DL-Alanine] | − |  | RESULTS AFTER DISINFECTION 18 hours (biofilm scale) [2, 4]: −
NC(Cc1ccc(O)cc1)C(=O)O (racemic) [DL-Tyrosine] | − | sufficient decontamination | 
O=C(O)CCC(=O)C(=O)O [2-Ketoglutaric Acid] |  |  | RESULTS AFTER DISINFECTION Growth ([1]; pH 5): −; RESULTS AFTER DISINFECTION 1 hour (biofilm scale) ([2]; pH 5): −; RESULTS AFTER DISINFECTION 18 hours (biofilm scale) ([2]; pH 5): −
CC(=O)O [Acetic Acid] | − |  | salt-forming acid tried against biofilm ([2]; acetic acid 0.1% to 1%): very efficient; RESULTS AFTER DISINFECTION 1 hour (biofilm scale) [2, 6]: −; RESULTS AFTER DISINFECTION 18 hours (biofilm scale) [2, 4]: −
O=C(O)CCCCC(=O)O [Adipic Acid] | − | sufficient decontamination | 
O=C(O)c1ccccc1 [Benzoic Acid] |  |  | RESULTS AFTER DISINFECTION Growth ([1]; pH 5): −; acceptably performing acids: decontamination within the specified times ([2]; pH 5): sufficient decontamination
O=C(O)C(=O)c1ccccc1 [Benzoylformic Acid] | − | sufficient decontamination | 
O=C(O)CN(CCO)CCO [Bicine] | − | sufficient decontamination | 
OB(O)O [Boric Acid (B(OH)3), Boric Acid] | − | sufficient decontamination | 
O=C(O)CCl [Chloroacetic Acid] |  |  | RESULTS AFTER DISINFECTION Growth ([1]; pH 5): −; RESULTS AFTER DISINFECTION 18 hours (biofilm scale) ([2]; pH 5): −
O=C(O)CC(O)(CC(=O)O)C(=O)O [Citric Acid] | − | sufficient decontamination | 
N[C@H](Cc1ccccc1)C(=O)O [D-Phenylalanine] | − |  | 
O=C(O)C(O)C(O)C(=O)O [D-Tartric acid] | − |  | 
O=C(O)C(Cl)Cl [Dichloroacetic Acid] | − |  | acceptably performing acids: decontamination within the specified times ([2]; pH 5): sufficient decontamination
O=CO [Formic Acid] |  |  | RESULTS AFTER DISINFECTION Growth ([1]; pH 5): −; acceptably performing acids: decontamination within the specified times ([2]; pH 5): sufficient decontamination
O=C(O)/C=C/C(=O)O [Fumaric Acid] | − |  | RESULTS AFTER DISINFECTION 1 hour (biofilm scale) [2, 6]: −; RESULTS AFTER DISINFECTION 18 hours (biofilm scale) [2, 4]: −
O=C[C@H](O)[C@@H](O)[C@H](O)[C@H](O)C(=O)O [Glucuronic Acid] | − | sufficient decontamination | 
N[C@@H](CCC(=O)O)C(=O)O [Glutamic Acid] | − | sufficient decontamination | 
NCC(=O)O [Glycine] | − | sufficient decontamination | 
O=C(O)CO [Glycolic Acid] | − |  | RESULTS AFTER DISINFECTION 1 hour (biofilm scale) [2, 6]: −; RESULTS AFTER DISINFECTION 18 hours (biofilm scale) [2, 4]: −
O=C(O)CNCC(=O)O [Iminodiacetic Acid] | − |  | RESULTS AFTER DISINFECTION 1 hour (biofilm scale) [2, 6]: −; RESULTS AFTER DISINFECTION 18 hours (biofilm scale) [2, 4]: −
O=C1O[C@H]([C@@H](O)CO)C(O)=C1O [L-Ascorbic Acid] | − |  | RESULTS AFTER DISINFECTION 1 hour (biofilm scale) [2, 6]: ++++
N[C@@H](CC(=O)O)C(=O)O [L-Aspartic Acid] | − |  | RESULTS AFTER DISINFECTION 18 hours (biofilm scale) [2, 4]: −
N[C@@H](CO)C(=O)O [L-Serine] | − | sufficient decontamination | 
N[C@@H](Cc1c[nH]c2ccccc12)C(=O)O [L-Tryptophan] |  |  | RESULTS AFTER DISINFECTION Growth ([1]; pH 5): −; acceptably performing acids: decontamination within the specified times ([2]; pH 5): sufficient decontamination
CC(O)C(=O)O (centres unmarked) [Lactic Acid] | − |  | 

Compound | RESULTS AFTER DISINFECTION Growth [1, 3] | acceptably performing acids: decontamination within the specified times [2, 5] | also measured
O=C(O)/C=C\C(=O)O [Maleic Acid] | − | sufficient decontamination | 
O=C(O)CC(O)C(=O)O (centres unmarked) [Malic Acid] | − | sufficient decontamination | 
O=C(O)CC(=O)O [Malonic Acid] | − |  | 
O=C(O)C(O)c1ccccc1 (centres unmarked) [Mandelic Acid] | − |  | salt-forming acid tried against biofilm ([2]; mandelic acid 1% to 10%): success; RESULTS AFTER DISINFECTION 1 hour (biofilm scale) [2, 6]: −; RESULTS AFTER DISINFECTION 18 hours (biofilm scale) [2, 4]: −
O=C(O)[C@@H](O)[C@H](O)[C@H](O)[C@@H](O)C(=O)O [Mucic Acid] | − |  | RESULTS AFTER DISINFECTION 1 hour (biofilm scale) [2, 6]: −; RESULTS AFTER DISINFECTION 18 hours (biofilm scale) [2, 4]: −
O=C(O)CN(CC(=O)O)CC(=O)O [Nitrilotriacetic Acid] | − | sufficient decontamination | 
O=C(O)C(=O)O [Oxalic Acid] | − | sufficient decontamination | 
NC(=O)C(=O)O [Oxamic Acid] | − | sufficient decontamination | 
O=C(O)Cc1ccccc1 [Phenylacetic Acid] | − | sufficient decontamination | 
O=P(O)(O)O [Phosphoric Acid (H3PO4), Phosphoric Acid] | − |  | RESULTS AFTER DISINFECTION 18 hours (biofilm scale) [2, 4]: −
O=C(O)c1ccccc1C(=O)O [Phthalic Acid] | − | sufficient decontamination | 
CC(=O)C(=O)O [Pyruvic Acid] | − |  | RESULTS AFTER DISINFECTION 18 hours (biofilm scale) [2, 4]: −
N[C@@H](C(=O)O)c1ccccc1 [R-2-Phenylglycine] | − |  | 
CCCCCCCCCCCCOS(=O)(=O)[O-].[Na+] [SDS, Sodium dodecyl sulfate] |  |  | biofilm removal efficiency after 18 hours ([2]; SDS 0.15% with 6% hydrogen peroxide, HEEDTA 0.3%, acetic acid 0.1%, zinc sulfate heptahydrate 0.1%, pH adjusted to 5, 18 hours): perfect efficiency; biofilm removal activity after one hour ([2]; SDS 0.15% with 6% hydrogen peroxide, HEEDTA 0.3%, acetic acid 0.1%, zinc sulfate heptahydrate 0.1%, pH adjusted to 5, one hour, sulfate): very good activity; also recorded: did work well; cleaning efficacy within one hour ([2]; SDS 1%, within one hour): perfect cleaning efficacy; detergent capable of dislodging biofilms [2]: capable of dislodging biofilms
O=C(O)c1ccccc1O [Salicylic Acid] | − | sufficient decontamination | 
O=C(O)CCC(=O)O [Succinic Acid] | − | sufficient decontamination | 
O=C(O)CNC(CO)(CO)CO [Tricine] | − | sufficient decontamination | 
OO [hydrogen peroxide, Hydrogen peroxide] |  |  | growth after treatment ([1]; hydrogen peroxide 5% in Table 1 solutions): total absence of growth; killing activity of bactericide, even against Mycobacterium sp. (Mycobacterium sp.): broad host killing activity; also recorded: efficient
Oc1ccccc1 [phenol] |  |  | bactericide tried in cleaning solution [1]: success; killing activity of bactericide, even against Mycobacterium sp. (Mycobacterium sp.): efficient
OCl [sodium hypochlorite] |  |  | killing activity of bactericide, even against Mycobacterium sp. (Mycobacterium sp.): broad host killing activity; also recorded: efficient
Ketopimelic Acid | − | sufficient decontamination | 
Povidone-iodine |  |  | bactericide tried in cleaning solution [1]: success; efficiency of bactericide combined to detergent ([2]; combined to the detergent Tween 20): significant efficiency; detergent capable of dislodging biofilms [2]: capable of dislodging biofilms
R-Chloromandelic Acid | − | sufficient decontamination | 
Sodium cocoyl sarcosinate [SCS] |  |  | detergent capable of dislodging biofilms [2]: capable of dislodging biofilms
Sodium n-decyl diphenylether disulfonate [SDDD] |  |  | detergent capable of dislodging biofilms [2]: capable of dislodging biofilms
Tetrasodium EDTA |  |  | chelator tried against biofilms [2]: a certain degree of success
